Data as given in patent EP0110955B1, “BRAIN-SPECIFIC DRUG DELIVERY” (UNIVERSITY OF FLORIDA, priority 1982, dated 1983).
Blank lines part the entries; values can stand above or below the compound they belong to.

Legend:
anterior pituitary (AP) = experiment: In vitro evaluation of the prolactin inhibitory effect on incubated anterior pituitaries; format: cell-based, rats; details: for Prolactin release rate of the incubated AP-S: 37°C, average of 9 separate AP-S
Protocol: Adult female rats (Charles Rivers Lab.) weighing 225-250 g were maintained on food and water ad libitum. Animals were sacrificed by decapitation; their pituitary glands were quickly removed from the cranium. The anterior pituitary (AP) of each animal was dissected into two equal halves and placed into incubation media. (Gibco's Minimal Essential Media supplied by Grand Island Biological Co. was used.) The incubation was conducted at 37 °C, under continuous aeration (95% 02, 5% C02); the pH was 7.2. After one hour of preincubation, the media were discarded and replaced with fresh ones containing either DA ( 2 x 10-^8 M), 6a ( 2 x 10-^8) or ascorbic acid (10-^4 M). In all cases, one-half of AP received the test drug; the other, the ascorbate control. After one hour, samples were taken from the media and the remaining media were discarded. […] One hour later, the second samples were taken After the 3 h incubation period, each half AP's were weighed. The samples were diluted 1:50 with phosphate buffered saline and then assayed in triplicate by the radioimmunoassay method described. The data are given as ng prolactin released/mg wet weight/h. Paired Student's T-test was used to evaluate the significance of the inhibitory effects of the test drugs on prolactin secretion The control AP half and the drug treated half were employed in each paired comparison. See TABLE I and the discussion thereof hereinabove.

serum prolactin = experiment: In vivo effect on pituitary prolactin secretion (17-β-estradiol primed male rats); details: I.V. 1 mg/kg
Description: Adult male rats (Charles Rivers, CD-1) weighing 200 to 225 g were provided food and water ad libitum for at least one week period to experimentation. To elevate serum prolactin levels, each rat received a single s.c. implant of a Silastic tube (1.57 mm interior diameter, 5 mm x 3.15 mm overall size) packed with crystalline 17-,8-estradiol. Two days later the rats were lightly anesthetized with ether and a small incision was made over the right jugular vein for intravenous (LV.) administration of the test drugs. Compound 6a was injected at a dose of 1 mg/kg body weight/ml saline and groups of six rats were decapitated at 15, 30, 60 and 120 min later to collect blood samples. Control rats (time 0) received an I.V. injection of the saline vehicle and were decapitated 30 min later. Compound 5c was dissolved in 10% ethanol in saline and was injected IV. Rats were decapitated at 15, 30 and 120 min later. Control (time 0) animals received the 10% ethanol vehicle and were sampled 30 min later.
Trunk blood was collected, allowed to clot for 2h and the serum was separated and stored at -20 ° C for subsequent assay for prolactin concentrations. Each serum sample was assayed in duplicate by the doubleantibody radioimmunoassay procedure described by the National Pituitary Agency Hormone Distribution Program. Serum prolactin concentrations are expressed in terms of the PRL-RP-2 reference preparation provided. The intraassay coefficient of variation for 10 replicate samples of pooled serum obtained from male rats was 13.8%.
The effects of compounds 5c and 6a on serum prolactin concentrations were evaluated by one-way analysis of variance and Student-Newman Keuls tests. A probability level of less than 0.05 was selected for significance. See FIGURE 7 and the discussion thereof hereinabove.

[1] = molecular target: T1, COMT (catechol-O-methyltransferase) (Rattus norvegicus, UniProt P22734); experiment: O-methyl metabolite formation by COMT in biological fluids; format: in vitro ADME; details: no methoxy derivatives detected in any of the biological fluids studied
T1 construct: from tissue; host or cells: rat brain homogenate (20%), rat liver homogenate (20%); also 80% plasma and whole citrated blood
T1 sequence (P22734 1-264): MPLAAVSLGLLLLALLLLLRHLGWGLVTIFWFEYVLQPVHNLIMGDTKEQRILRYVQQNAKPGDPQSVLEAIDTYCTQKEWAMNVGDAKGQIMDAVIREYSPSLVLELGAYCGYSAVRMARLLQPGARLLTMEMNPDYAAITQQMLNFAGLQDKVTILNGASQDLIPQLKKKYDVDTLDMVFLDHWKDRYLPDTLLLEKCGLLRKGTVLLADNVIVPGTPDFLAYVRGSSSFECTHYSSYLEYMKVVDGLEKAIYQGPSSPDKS
Protocol: In an attempt to ascertain whether any biotransformation of the free catechol is taking place by COMT (catechol-O-methyltransferase) either before or after oxidation, the possible O-methyl metabolites (9 and 10) were synthesized separately following Scheme 4 with 3-methoxytyramine hydrochloride as the starting material. [drawing 52] [drawing 53]
Figures 1-4 illustrate the results of such an investigation. The apparent half-lives for the disappearance of 5c in biological fluids at 37°C were calculated. […] The obtained values, 51 min (80% plasma), 17 min (20% brain homogenate), 18 min (whole citrated blood) and 6 min (20% liver homogenate), reflect an acceptable stability of the dihydro derivative 5c. The disappearance of 5c is accompanied by formation of some monoester (11) and dihydroxy dihydro form (5a) in all the media except the liver homogenate. The rate of hydrolysis of the first ester moiety is faster than the second and a reasonable amount of monoester 11 builds up with time. […] Thus, it is established that this derivative, 6a, is forming as the main product of the various interconversion routes and it is the direct precursor thus concluded to be locked in the brain in the in vivo experiment.

[2] = Kinetics of oxidation of the dihydro derivatives in brain homogenate; format: in vitro ADME, rat; details: pH 7.4, 37°C; for half-life: rat
Protocol: In Brain Homogenate: 2.0 g of rat brain tissue were homogenized in 10 ml of phosphate buffer, pH 7.4. The homogenate was centrifuged for 15 min at 3000 rpm, decanted, heated in a water bath at 50°C for 5 min and then centrifuged again. The supernatant solution was diluted to 100 ml with phosphate buffer, pH 7.4.
Reference Sample: 0.2 ml of methyl alcohol was diluted to 10 ml with the brain homogenate solution, and the solution was used to record the base line on Cary 219 spectrophotometer and as a reference for the dihydro derivative sample solution.
Dihydro Derivative Sample Solutions: 0.2 ml of 6.25 x 10-^4 M methanolic solution of the freshly prepared dihydro derivative was diluted to 10 ml with the brain homogenate solution. The mixture was scanned at 37 ° C from 400 nm to 300 nm every 10 min for 2 hrs on […] spectrophotometer.

[3] = Chemical oxidation by hydrogen peroxide and silver nitrate; format: physicochemical; details: 30% H2O2, UV spectrum
Protocol: The stability of the 1,4-dihydropyridine derivatives (5) was determined in the presence of the oxidizing agents, alcoholic AgN03 and hydrogen peroxide. The in vitro rates of oxidation of the 1,4-dihydropyridine derivative (5c) in 80% plasma, 20% brain homogenate, 20% liver homogenate and in whole blood were determined.
To 10 ml of 30% H202 was added 0.2 g of the dihydropyridine derivative (products of Examples 5 or 8). The mixture was stirred and samples were taken to check the UV spectrum.
To 5 ml of saturated methanolic AgN03 solution was added 1 ml of 5% methanolic solution of the dihydropyridine derivative. The mixture was shaken and left for 5 min for complete precipitation of silver, centrifuged and an aliquot was taken to check the UV spectrum. Complete oxidation to the quaternary salts was observed.

[4] = Kinetics of oxidation of the dihydro derivatives in whole blood; format: in vitro ADME, human; details: 37°C; for half-life: human
Protocol: In Whole Blood: In each of 5 tubes, 0.1 ml of 10 x 10-^4 M methanolic solution of the freshly prepared dihydro derivative, was added 2 ml of fresh heparinized whole human blood and the tubes were kept at 37°C in a water bath. At the end of the time period to be investigated, 8 ml of acetonitrile was added, shaken vigorously and centrifuged. The extension of the supernatant solution at 350 nm was measured. A reference sample was made by addition of 0.1 ml of methyl alcohol instead of the sample solution following the same procedure.

[5] = Lability of the catechol esters to hydrolysis; format: physicochemical; details: diacetyl derivatives
Description: Attempts to prepare 7 by using dopamine free base were largely unsuccessful. As for the catechol protecting groups, the acetyl and pivalyl moieties were selected due to their rather different steric and partitioning parameters. Acylation could be accomplished with the acyl chlorides by using conventional methods. Reduction of the quaternaries (6a-c and 9) was accomplished by using sodium dithionite in mildly basic aqueous solution, (NaHC03). It was observed that the dihydro compound obtained in the case of the quaternary 6b gave a faint green color with ferric ions, indicating partial hydrolysis of at least one of the acetyl moieties during reduction, even in the cold, weakly basic solution used as a medium. The dihydropyridine derivatives isolated (5a-c and 10) were determined to have the expected 1,4-dihydropyridine structure, based on their NMR and UV spectra.
The dipivalyldihydro derivative (5c) was thoroughly investigated for its in vitro rates of disappearance and metabolic degradation in various biological fluids. It is evident that 5c represents a rather complex case, as besides oxidation, a two-step hydrolysis will also take place. Scheme 5 illustrates the interconversion of the possible components. [drawing 54]

[6] = cited from earlier work

SMILES: NCCc1ccc(O)c(O)c1 [DA, dopamine, reference compound]
Prolactin release rate of the incubated AP-S (anterior pituitary (AP); 2x10^-7M): 121±38 ng/mg. h | effect on the rate of release of prolactin (anterior pituitary (AP); 2x10^-8M): neither DA nor 6a had any effect | Prolactin release rate of the incubated AP-S (anterior pituitary (AP); 2x10^-8M): 355±67 ng/mg. h | inhibition at 0.2 µM (anterior pituitary (AP); Rattus norvegicus, 1 h, 2x10-^7 M, read-out: reduction of the prolactin rate secretion): 57%

SMILES: C[n+]1cccc(C(=O)NCCc2ccc(O)c(O)c2)c1 [6a]
reduction of the prolactin rate secretion (anterior pituitary (AP); 2x10-^7 M): no effect | Prolactin release rate of the incubated AP-S (anterior pituitary (AP); 2x10^-7M): 277±32 ng/mg. h | effect on the rate of release of prolactin (anterior pituitary (AP); 2x10^-8M): neither DA nor 6a had any effect | Prolactin release rate of the incubated AP-S (anterior pituitary (AP); 2x10^-8M): 386±29 ng/mg. h | serum prolactin levels versus vehicle injected controls (serum prolactin; by 60 and 120 min): not significantly different from vehicle injected controls | effect on the serum prolactin concentrations (serum prolactin; by 15 min): no significant effect | reduction of serum prolactin concentrations (serum prolactin; by 30 min): 67% | substrate for COMT [1]: do not appear to be good substrates for COMT

half-life [2]: 11.1 h | half-life [4]: 1.7 h
SMILES: CCOC(=O)C1=CN(C)C=C(C(=O)NCCc2ccccc2)C1 [5-Carboethoxy-1-methyl-3-(N-β-phenethyl)carbamoyl-1,4-dihydropyridine]
Kinetics of Oxidation (rate constant) [2]: 1.74 x 10^-5 n=6 r=.993 | Oxidation by Hydrogen Peroxide [3]: Complete oxidation to the corresponding quaternary salts | Kinetics of Oxidation (rate constant) [4]: 1.13 x 10^-4 n=5 r=.972

SMILES: CN1C=CCC(C(=O)NCCc2ccc(O)c(O)c2)=C1 [5a, 1-Methyl-3-{N-[β-(3,4-dihydroxyphenyl)-ethyl]}carbamoyl-1,4-dihydropyridine]
substrate for COMT [1]: do not appear to be good substrates for COMT

SMILES: CC(=O)Oc1ccc(CCNC(=O)C2=CN(C)C=CC2)cc1OC(C)=O [5b, 1-Methyl-3-(N-[6-(3,4-diacetoxyphenyl)-ethyl]}carbamoyl-1,4-dihydropyridine]
lability to hydrolysis [5]: labile to hydrolysis

SMILES: CC(=O)Oc1ccc(CCNC(=O)c2ccc[n+](C)c2)cc1OC(C)=O [6b, 1-Methyl-3-{N-[β-(3,4-diacetoxy-phenyl)ethyl]} carbamoyl-pyridinium iodide]
lability to hydrolysis [5]: labile to hydrolysis

SMILES: CCCC(CCC)C(=O)[O-].[Na+] [sodium valproate]
level in the blood needed to achieve the required activity [6]: 50 to 100 µg/mL

half-life ([2]; unit inferred): 22.9 h | half-life ([4]; unit inferred): 3.9 h
SMILES: CN1C=C(C(=O)NCCc2ccccc2)CC(C(=O)NCCc2ccccc2)=C1 [1-Methyl-3,5-di(N-β-phenethyl)carbamoyl-1,4-dihydropyridine]
Kinetics of Oxidation (rate constant) [2]: 8.4 x 10^-6 n=6 r=.997 | Oxidation by Hydrogen Peroxide [3]: Complete oxidation to the corresponding quaternary salts | Kinetics of Oxidation (rate constant) [4]: 4.9 x 10^-5 n=5 r=.949
